{"source": "PubChem BioAssay AID608", "about": "(Sanford-Burnham Center for Chemical Genomics, 2007)", "note": "Values joined by “and” are separate entries in the source; they are usually repeats but may differ in a detail not shown here. Equal entries are not always repeated. Active and inactive are the calls of the source. The rule behind the calls is not given here."}
{"biological_target": "Peptidyl-prolyl cis-trans isomerase FKBP1A (Homo sapiens) (UniProt P62942)", "sequence (P62942 whole entry, looked up)": "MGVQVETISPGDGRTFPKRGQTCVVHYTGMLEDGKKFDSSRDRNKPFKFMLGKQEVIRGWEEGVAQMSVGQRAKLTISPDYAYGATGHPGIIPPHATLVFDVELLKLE", "experiment": "FKBP12 binders, biophysical, NMR detection (AID 608)", "conditions": "NMR binding, purified FKBP12"}
{"smiles": "O=S(=O)(Cc1ccccc1)N1CCCCCC1", "Kd": "> 4 mM (inactive)"}
{"smiles": "O=C(NCO)c1ccc([N+](=O)[O-])cc1", "Kd": "> 4 mM (inactive)"}
{"smiles": "CC(=O)Nc1ccc(N(C)C(C)=O)cc1", "Kd": "> 4 mM (inactive)"}
{"smiles": "OCc1ccccc1O[C@@H]1O[C@H](CO)[C@@H](O)[C@H](O)[C@H]1O", "Kd": "> 4 mM (inactive)"}
{"smiles": "CC(C)[C@@H]1CC[C@@H](C)C[C@H]1O", "Kd": "> 4 mM (inactive)"}
{"smiles": "CN(C)S(=O)(=O)N1CCc2ccccc21", "Kd": "> 4 mM (inactive)"}
{"smiles": "OCc1csc(-c2ccccc2)n1", "Kd": "> 4 mM (inactive)"}
{"smiles": "Nc1c(F)c(F)nc(F)c1F", "Kd": "> 4 mM (inactive)"}
{"smiles": "CN1CCN(C(=S)NC(=O)c2ccn(C)n2)CC1", "Kd": "> 4 mM (inactive)"}
{"smiles": "O=C(c1ccccc1)c1ccc(N2CCNCC2)cc1", "Kd": "> 4 mM (inactive)"}
{"smiles": "NC(=O)Cn1nnc(-c2ccc(C(F)(F)F)cc2)n1", "Kd": "> 4 mM (inactive)"}
{"smiles": "Fc1cccc(F)c1CN1CCN(c2ncccn2)CC1", "Kd": "> 4 mM (inactive)"}
{"smiles": "O=C1CSC(c2ccc3c(c2)OCO3)N1", "note": "(stereo not given)", "Kd": "> 4 mM (inactive)"}
{"smiles": "Cc1c(C(=O)NCc2ccccn2)oc2ccccc12", "Kd": "> 4 mM (inactive)"}
{"smiles": "O=C(CSc1ncn[nH]1)c1ccc2c(c1)OCCO2", "Kd": "> 4 mM (inactive)"}
{"smiles": "Cc1occc1C(=O)Nc1ccc2c(c1)OCO2", "Kd": "> 4 mM (inactive)"}
{"smiles": "O=C(CN1C(=O)CCC1=O)c1ccccc1", "Kd": "> 4 mM (inactive)"}
{"smiles": "CCC(=O)Oc1ccc(N2C(=O)CCC2=O)cc1", "Kd": "> 4 mM (inactive)"}
{"smiles": "O=C(Nc1ccc2c(c1)OCO2)c1cnn2cccnc12", "Kd": "> 4 mM (inactive)"}
{"smiles": "OCC(O)Cc1ccc2c(c1)OCO2", "note": "(stereo not given)", "Kd": "> 4 mM (inactive)"}
{"smiles": "O=C(c1cc2ccccc2o1)N1CCCCCC1", "Kd": "0.184 mM"}
{"smiles": "O=C1CNC(=O)N1c1cccc(Cl)c1", "Kd": "> 4 mM (inactive)"}
{"smiles": "Fc1ccc(F)c(CN2CCN(c3ncccn3)CC2)c1", "Kd": "> 4 mM (inactive)"}
{"smiles": "Nc1csc(C(=O)O)c1", "Kd": "> 4 mM (inactive)"}
{"smiles": "CC1CC2(NC(=O)NC2=O)C(C)CN1C", "note": "(stereo not given)", "Kd": "> 4 mM (inactive)"}
{"smiles": "NC(=O)c1oc2ccccc2c1N", "Kd": "> 4 mM (inactive)"}
{"smiles": "CC(=O)Nc1cccc(NC(=O)c2cccnc2)c1", "Kd": "> 4 mM (inactive)"}
{"smiles": "NC12CC3CC(C1)CC(O)(C3)C2", "Kd": "> 4 mM (inactive)"}
{"smiles": "COC1=CC(=O)C[C@@H](C)[C@]12Oc1c(Cl)c(OC)cc(OC)c1C2=O", "Kd": "> 4 mM (inactive)"}
{"smiles": "COc1ccc(C)cc1S(=O)(=O)Nc1ccccc1C", "Kd": "> 4 mM (inactive)"}
{"smiles": "CC(=O)Nc1nnc(-c2ccccn2)o1", "Kd": "> 4 mM (inactive)"}
{"smiles": "Cc1[nH]c2ccccc2c1Cc1n[nH]c(=S)n1C", "Kd": "> 4 mM (inactive)"}
{"smiles": "COc1cc([C@@H]2c3cc4c(cc3[C@H](O)[C@H]3COC(=O)[C@H]23)OCO4)cc(OC)c1OC", "Kd": "> 4 mM (inactive)"}
{"smiles": "O=S(=O)(Nc1cc(Cl)cc(Cl)c1)N1CCCCC1", "Kd": "inactive"}
{"smiles": "NCc1nc2ccccc2s1", "Kd": "> 4 mM (inactive)"}
{"smiles": "Nc1ccc(O)cn1", "Kd": "> 4 mM (inactive)"}
{"smiles": "COc1ccc(CN2CCNC(=O)C2CC(=O)O)cc1C", "note": "(stereo not given)", "Kd": "> 4 mM (inactive)"}
{"smiles": "COc1ccc(Cc2nccc3cc(OC)c(OC)cc23)cc1OC", "Kd": "> 4 mM (inactive)"}
{"smiles": "Cn1c(NCc2ccco2)nc2ccccc21", "Kd": "> 4 mM (inactive)"}
{"smiles": "Nc1nsc(-c2ccccc2)n1", "Kd": "> 4 mM (inactive)"}
{"smiles": "O=C(Nc1ccc(N2CCOCC2)cc1)C1CC1", "Kd": "> 4 mM (inactive)"}
{"smiles": "Nc1nc(N)nc(N2C(=O)c3ccccc3C2=O)n1", "Kd": "> 4 mM (inactive)"}
{"smiles": "c1ccc(SCc2nc(-c3ccccn3)no2)cc1", "Kd": "> 4 mM (inactive)"}
{"smiles": "Cc1ccc(O)c(NC(=O)c2ccco2)c1", "Kd": "> 4 mM (inactive)"}
{"smiles": "O=C1NC(=Nc2ccccc2Cl)SC1(CO)CO", "Kd": "> 4 mM (inactive)"}
{"smiles": "CCOC(=O)c1c(C)cc(O)c(C=O)c1O", "Kd": "> 4 mM (inactive)"}
{"smiles": "CC(=O)Nc1ccc(NC(C)=O)cc1", "Kd": "> 4 mM (inactive)"}
{"smiles": "Cc1nc2sccn2c1C(=O)O", "Kd": "> 4 mM (inactive)"}
{"smiles": "Cc1n[nH]c(C)c1NC(=O)c1cccc(F)c1", "Kd": "> 4 mM (inactive)"}
{"smiles": "O=C(c1cnsn1)N1CCN(c2ccccn2)CC1", "Kd": "> 4 mM (inactive)"}
{"smiles": "CC(=O)O[C@@H]1CC[C@@]2(C)C(CC[C@]3(C)C2CC=C2C4CC(C)(C)CC[C@]4(C(=O)O)CC[C@]23C)C1(C)C", "note": "(stereo not given in full)", "Kd": "> 4 mM (inactive)"}
{"smiles": "Cc1cccc(N2CCN(C(=O)c3ccncc3)CC2)c1C", "Kd": "> 4 mM (inactive)"}
{"smiles": "CN(C)S(=O)(=O)c1cccc(N)c1", "Kd": "> 4 mM (inactive)"}
{"smiles": "COC(=O)CC1SC(=O)NC1=O", "note": "(stereo not given)", "Kd": "> 4 mM (inactive)"}
{"smiles": "NC(=O)/C=C/C(=O)Nc1ccccc1", "Kd": "> 4 mM (inactive)"}
{"smiles": "COc1ccc(C2=CC(=O)C=CC2=O)cc1", "Kd": "> 4 mM (inactive)"}
{"smiles": "O=C1C2C3CCC(O3)C2C(=O)N1c1cccc(F)c1", "note": "(stereo not given)", "Kd": "> 4 mM (inactive)"}
{"smiles": "O=C(Nc1nnc(C(F)(F)F)s1)c1cccnc1", "Kd": "> 4 mM (inactive)"}
{"smiles": "CCOC(=O)c1cnc2sccn2c1=O", "Kd": "> 4 mM (inactive)"}
{"smiles": "O=C(O)C1Cc2ccccc2N1", "note": "(stereo not given)", "Kd": "> 4 mM (inactive)"}
{"smiles": "C=CC(C1=CC(=O)C(OC)=CC1=O)c1ccccc1", "note": "(stereo not given)", "Kd": "> 4 mM (inactive)"}
{"smiles": "O=C(O)C1CN(Cc2ccccc2)CCO1", "note": "(stereo not given)", "Kd": "> 4 mM (inactive)"}
{"smiles": "O=[n+]1cc(-c2ccccc2)n([O-])c2c1CCC2", "Kd": "> 4 mM (inactive)"}
{"smiles": "O=C(Cc1c(F)cccc1Cl)Nc1ccncc1", "Kd": "> 4 mM (inactive)"}
{"smiles": "O=C(Nc1ccc(-c2nnco2)cc1)c1ccccc1", "Kd": "> 4 mM (inactive)"}
{"smiles": "O=c1c(Cl)c(NCCO)ncn1-c1ccccc1", "Kd": "> 4 mM (inactive)"}
{"smiles": "COc1cc2c(cc1OC)C(C)NCC2", "note": "(stereo not given)", "Kd": "> 4 mM (inactive)"}
{"smiles": "Cc1c(/C=N\\n2cnnc2)c2ccccc2n1C", "Kd": "> 4 mM (inactive)"}
{"smiles": "Cc1ccc(OCC(=O)n2cnnc2N)c(C)c1", "Kd": "> 4 mM (inactive)"}
{"smiles": "O=C(Cc1cccs1)Nc1ccccn1", "Kd": "> 4 mM (inactive)"}
{"smiles": "O=C(O)c1cccc(N2C(=O)C3CC=CCC3C2=O)c1", "note": "(stereo not given)", "Kd": "> 4 mM (inactive)"}
{"smiles": "O=C(NCCCO)c1ccncc1", "Kd": "> 4 mM (inactive)"}
{"smiles": "Cc1cc(C)nc(NC(N)=NCc2ccco2)n1", "Kd": "> 4 mM (inactive)"}
{"smiles": "Cc1ncoc1C(=O)Nc1ncc([N+](=O)[O-])s1", "Kd": "> 4 mM (inactive)"}
{"smiles": "N[C@@H](C(=O)O)[C@@H](O)[C@H](O)[C@H](O)CO", "Kd": "> 4 mM (inactive)"}
{"smiles": "Nc1ccccc1N1CCOCC1", "Kd": "> 4 mM (inactive)"}
{"smiles": "N[C@@H](CCC(=O)N[C@@H](CS)C(=O)NCC(=O)O)C(=O)O", "Kd": "> 4 mM (inactive)"}
{"smiles": "Cc1cccc(C)c1N1C(=O)CCC1=O", "Kd": "> 4 mM (inactive)"}
{"smiles": "CN1CCN(S(=O)(=O)c2ccc(=O)[nH]c2)CC1", "Kd": "> 4 mM (inactive)"}
{"smiles": "NC1=NC(=O)/C(=C/c2ccc(O)c(Cl)c2)S1", "Kd": "> 4 mM (inactive)"}
{"smiles": "Cc1nc2c(n1O)CCc1c-2no[n+]1[O-]", "Kd": "> 4 mM (inactive)"}
{"smiles": "Oc1ccc(C(=S)N2CCOCC2)cc1", "Kd": "> 4 mM (inactive)"}
{"smiles": "Cn1c(=O)c2[nH]cnc2n(C)c1=O", "Kd": "> 4 mM (inactive)"}
{"smiles": "CCC1(CC)C(=O)NC(=O)N=C1N", "Kd": "> 4 mM (inactive)"}
{"smiles": "CN1CCN(C(=O)Nc2cccc3ccccc23)CC1", "Kd": "> 4 mM (inactive)"}
{"smiles": "CC1CCN(C(=O)c2cc3ccccc3o2)CC1", "Kd": "> 4 mM (inactive)"}
{"smiles": "O=C1C2CC=C(Cl)CC2C(=O)N1c1ccccc1O", "note": "(stereo not given)", "Kd": "> 4 mM (inactive)"}
{"smiles": "S=C(c1ccc(N2CCOCC2)cc1)N1CCCCC1", "Kd": "> 4 mM (inactive)"}
{"smiles": "CC(=O)c1nnc2cc(C)nn2c1C", "Kd": "> 4 mM (inactive)"}
{"smiles": "Cc1ccc(SCC(=O)N2CCOCC2)cc1", "Kd": "0.022 mM and 0.012 mM"}
